According to PubChem BioAssay AID1963858 (Molecular Pharmacology Branch, DTP, NCI, 2024):

System: HOP-62 multicell spheroids with HUVEC/MSC, viability
Experiment: Anticancer human tumor HOP-62 cell line growth inhibition [KRAS2];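 also: viability read after a week of compound exposure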;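 as to viability, T/C: 100% = DMSO vehicle-treated spheroids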
Conditions: for viability, T/C: stronger effect = lower value
Method in brief: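 Combination screen of spheroid viability in tumor-cell co-cultures with endothelial (HUVEC) and mesenchymal stem cell stroma. Each agent was tested in half-log dilutions, topping at clinical Cmax or at 10 microM without a known Cmax.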

[1] = curve of first compound, second compound 0.1 µM
[2] = curve of first compound, second compound 0.316 µM
[3] = curve of first compound, second compound 1 µM
[4] = curve of first compound, second compound 3.16 µM
[5] = curve of first compound, second compound 10 µM
[6] = second compound 0.1 µM, first compound 0.0316 µM
[7] = second compound 0.1 µM, first compound 0.1 µM
[8] = second compound 0.1 µM, first compound 0.316 µM
[9] = second compound 0.1 µM, first compound 1 µM
[10] = second compound 0.1 µM, first compound 3.16 µM
[11] = second compound 0.1 µM, first compound 10 µM
[12] = second compound 0.316 µM, first compound 0.0316 µM
[13] = second compound 0.316 µM, first compound 0.1 µM
[14] = second compound 0.316 µM, first compound 0.316 µM
[15] = second compound 0.316 µM, first compound 1 µM
[16] = second compound 0.316 µM, first compound 3.16 µM
[17] = second compound 0.316 µM, first compound 10 µM
[18] = second compound 1 µM, first compound 0.0316 µM
[19] = second compound 1 µM, first compound 0.1 µM
[20] = second compound 1 µM, first compound 0.316 µM
[21] = second compound 1 µM, first compound 1 µM
[22] = second compound 1 µM, first compound 3.16 µM
[23] = second compound 1 µM, first compound 10 µM
[24] = second compound 3.16 µM, first compound 0.0316 µM
[25] = second compound 3.16 µM, first compound 0.1 µM
[26] = second compound 3.16 µM, first compound 0.316 µM
[27] = second compound 3.16 µM, first compound 1 µM
[28] = second compound 3.16 µM, first compound 3.16 µM
[29] = second compound 3.16 µM, first compound 10 µM
[30] = second compound 10 µM, first compound 0.0316 µM
[31] = second compound 10 µM, first compound 0.1 µM
[32] = second compound 10 µM, first compound 0.316 µM
[33] = second compound 10 µM, first compound 1 µM
[34] = second compound 10 µM, first compound 3.16 µM
[35] = second compound 10 µM, first compound 10 µM
[36] = second compound 0.1 µM, first compound 0.01 µM
[37] = second compound 0.316 µM, first compound 0.01 µM
[38] = second compound 1 µM, first compound 0.01 µM
[39] = second compound 3.16 µM, first compound 0.01 µM
[40] = second compound 10 µM, first compound 0.01 µM

CCNC(=O)CC1N=C(c2ccc(Cl)cc2)c2cc(OC)ccc2-n2c(C)nnc21 (configuration not stated) + CC1OCC2(CCN(c3cnc(Sc4ccnc(N)c4Cl)c(N)n3)CC2)C1N
IC50 [1]: 0.25 µM
IC50 [2]: 0.2 µM
IC50 [3]: 0.136 µM
IC50 [4]: 0.0508 µM
IC50 [5]: < 0.0316 µM
viability, T/C [6]: 103%
viability, T/C [7]: 74.5%
viability, T/C [8]: 45.2%
viability, T/C [9]: 27.6%
viability, T/C [10]: 28.6%
viability, T/C [11]: 28.1%
viability, T/C [12]: 96.2%
viability, T/C [13]: 65.5%
viability, T/C [14]: 40.9%
viability, T/C [15]: 25.1%
viability, T/C [16]: 24.3%
viability, T/C [17]: 23.6%
viability, T/C [18]: 75.9%
viability, T/C [19]: 55.6%
viability, T/C [20]: 34.5%
viability, T/C [21]: 19.8%
viability, T/C [22]: 22.1%
viability, T/C [23]: 19.7%
viability, T/C [24]: 60%
viability, T/C [25]: 35.5%
viability, T/C [26]: 25.9%
viability, T/C [27]: 21.2%
viability, T/C [28]: 16.1%
viability, T/C [29]: 15.3%
viability, T/C [30]: 32.4%
viability, T/C [31]: 21.7%
viability, T/C [32]: 18.6%
viability, T/C [33]: 11.5%
viability, T/C [34]: 11.7%
viability, T/C [35]: 9.82%

CC(=O)Nc1cccc(-n2c(=O)n(C3CC3)c(=O)c3c(Nc4ccc(I)cc4F)n(C)c(=O)c(C)c32)c1 + CC1OCC2(CCN(c3cnc(Sc4ccnc(N)c4Cl)c(N)n3)CC2)C1N
IC50 [1]: 0.00214 µM
IC50 [2]: 0.000877 µM
IC50 [3]: 0.000167 µM
IC50 [4]: < 0.0001 µM
IC50 [5]: < 0.0001 µM
viability, T/C (second compound 0.1 µM, first compound 0.0001 µM): 93.8%
viability, T/C (second compound 0.1 µM, first compound 0.000316 µM): 86.2%
viability, T/C (second compound 0.1 µM, first compound 0.001 µM): 67.9%
viability, T/C (second compound 0.1 µM, first compound 0.00316 µM): 41%
viability, T/C [36]: 29.1%
viability, T/C [6]: 28.5%
viability, T/C (second compound 0.316 µM, first compound 0.0001 µM): 79.8%
viability, T/C (second compound 0.316 µM, first compound 0.000316 µM): 64.2%
viability, T/C (second compound 0.316 µM, first compound 0.001 µM): 49.8%
viability, T/C (second compound 0.316 µM, first compound 0.00316 µM): 33.8%
viability, T/C [37]: 22.9%
viability, T/C [12]: 25.8%
viability, T/C (second compound 1 µM, first compound 0.0001 µM): 55.2%
viability, T/C (second compound 1 µM, first compound 0.000316 µM): 42.8%
viability, T/C (second compound 1 µM, first compound 0.001 µM): 33.5%
viability, T/C (second compound 1 µM, first compound 0.00316 µM): 21.5%
viability, T/C [38]: 20.2%
viability, T/C [18]: 21.5%
viability, T/C (second compound 3.16 µM, first compound 0.0001 µM): 25.8%
viability, T/C (second compound 3.16 µM, first compound 0.000316 µM): 16.9%
viability, T/C (second compound 3.16 µM, first compound 0.001 µM): 14.4%
viability, T/C (second compound 3.16 µM, first compound 0.00316 µM): 17.7%
viability, T/C [39]: 15.4%
viability, T/C [24]: 15.7%
viability, T/C (second compound 10 µM, first compound 0.0001 µM): 20.2%
viability, T/C (second compound 10 µM, first compound 0.000316 µM): 14.3%
viability, T/C (second compound 10 µM, first compound 0.001 µM): 15.3%
viability, T/C (second compound 10 µM, first compound 0.00316 µM): 14.2%
viability, T/C [40]: 12.4%
viability, T/C [30]: 13.7%

Cn1nccc1Nc1nccc(-c2cc3c(s2)C(C)(C)N(CCN2CCOCC2)C3=O)n1 + CC1OCC2(CCN(c3cnc(Sc4ccnc(N)c4Cl)c(N)n3)CC2)C1N
IC50 [1]: 0.803 µM
IC50 [2]: 0.331 µM
IC50 [3]: 0.0978 µM
IC50 [4]: < 0.0316 µM
IC50 [5]: < 0.0316 µM
viability, T/C [6]: 94.3%
viability, T/C [7]: 85.4%
viability, T/C [8]: 70%
viability, T/C [9]: 48.6%
viability, T/C [10]: 21.4%
viability, T/C [11]: 24.1%
viability, T/C [12]: 85.2%
viability, T/C [13]: 71.6%
viability, T/C [14]: 51.8%
viability, T/C [15]: 30.8%
viability, T/C [16]: 21.8%
viability, T/C [17]: 20.5%
viability, T/C [18]: 62.9%
viability, T/C [19]: 48.4%
viability, T/C [20]: 36%
viability, T/C [21]: 21.2%
viability, T/C [22]: 18.1%
viability, T/C [23]: 18.7%
viability, T/C [24]: 40.2%
viability, T/C [25]: 35.4%
viability, T/C [26]: 31.9%
viability, T/C [27]: 15.7%
viability, T/C [28]: 14.9%
viability, T/C [29]: 16.6%
viability, T/C [30]: 29.6%
viability, T/C [31]: 35.7%
viability, T/C [32]: 18.7%
viability, T/C [33]: 17.1%
viability, T/C [34]: 13.7%
viability, T/C [35]: 11.9%

CC1COCCN1c1cc(-c2ccnn2C)c2ccnc(-c3ccn[nH]3)c2n1 (configuration not stated) + C=CC(=O)N1CCN(c2nc(=O)n(-c3c(C)ccnc3C(C)C)c3nc(-c4c(O)cccc4F)c(F)cc23)C(C)C1
IC50 [1]: 0.0272 µM
IC50 [2]: 0.0332 µM
IC50 [3]: 0.0233 µM
IC50 [4]: 0.012 µM
IC50 [5]: < 0.01 µM
viability, T/C [36]: 61.3%
viability, T/C [6]: 48.3%
viability, T/C [7]: 15.2%
viability, T/C [8]: 11.7%
viability, T/C [9]: 11.4%
viability, T/C [10]: 8.87%
viability, T/C [37]: 66.7%
viability, T/C [12]: 51.5%
viability, T/C [13]: 19.5%
viability, T/C [14]: 12.7%
viability, T/C [15]: 10.7%
viability, T/C [16]: 9.1%
viability, T/C [38]: 65.9%
viability, T/C [18]: 44.2%
viability, T/C [19]: 19.3%
viability, T/C [20]: 11.1%
viability, T/C [21]: 10.5%
viability, T/C [22]: 10.7%
viability, T/C [39]: 53.1%
viability, T/C [24]: 33.5%
viability, T/C [25]: 15.5%
viability, T/C [26]: 11.7%
viability, T/C [27]: 13.3%
viability, T/C [28]: 12.1%
viability, T/C [40]: 33%
viability, T/C [30]: 23.9%
viability, T/C [31]: 18.1%
viability, T/C [32]: 15.5%
viability, T/C [33]: 13.8%
viability, T/C [34]: 11.3%

CC(=O)OC12COC1CC(O)C1(C)C(=O)C(O)C3=C(C)C(OC(=O)C(O)C(NC(=O)OC(C)(C)C)c4ccccc4)CC(O)(C(OC(=O)c4ccccc4)C21)C3(C)C (configuration not stated)
viability, T/C (compound 0.01 µM): 41% [middle of 5 runs]
viability, T/C (compound 0.0316 µM): 36.9% [middle of 5 runs]
viability, T/C (compound 0.1 µM): 36.1% [middle of 5 runs]
viability, T/C (compound 0.316 µM): 39.6% [middle of 5 runs]
viability, T/C (compound 1 µM): 42% [middle of 5 runs]
viability, T/C (compound 3.16 µM): 42.9% [middle of 5 runs]
IC50 (curve of compound): < 0.01 µM
